# Laboratory results: the supplement of paper PMC6045584
# ± gives the standard deviation of the averaged measurements.
# Columns and labels:
# [1] = compound: CCn1c(C(=O)N(C2CC2)C2CC2)cc2c3c(ncn3C)c(Nc3cc(C)n(C)n3)nc21; test: surviving fraction relative to DMSO-only wells; higher = less growth inhibition; details: exposure time: 5 days
# Outline: (§1)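 Viability was scored with CellTiter-Glo luminescence and normalised to the median of DMSO-only wells as surviving fraction. Beforehand, log-phase tumour cell lines were seeded at 250–500 cells per well in 384-well plates, allowed 24 hours, and exposed continuously for five days to inhibitors at 0.5, 1, 5, 10, 50, 100, 500 and 1000 nM. Only lines whose three screens gave replicate Pearson r >0.7 and median Z' >0.3 were kept.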
# CRIZOTINIB = compound: C[C@@H](Oc1cc(-c2cnn(C3CCNCC3)c2)cnc1N)c1c(Cl)ccc(F)c1Cl [CRIZOTINIB]; test: as above; details: exposure time: 5 days
# Outline: as §1
Test System,surviving fraction ([1]; 0.5 nM),surviving fraction ([1]; 1 nM),surviving fraction ([1]; 5 nM),surviving fraction ([1]; 10 nM),surviving fraction ([1]; 50 nM),surviving fraction ([1]; 100 nM),surviving fraction ([1]; 500 nM),surviving fraction ([1]; 1000 nM),surviving fraction (CRIZOTINIB; 0.5 nM),surviving fraction (CRIZOTINIB; 1 nM),surviving fraction (CRIZOTINIB; 5 nM),surviving fraction (CRIZOTINIB; 50 nM),surviving fraction (CRIZOTINIB; 100 nM),surviving fraction (CRIZOTINIB; 500 nM),surviving fraction (CRIZOTINIB; 1000 nM),surviving fraction (CRIZOTINIB; 10 nM)
HCT15 LARGE INTESTINE,0.987 ± 0.032,0.972 ± 0.011,0.944 ± 0.021,0.986 ± 0.011,1.05 ± 0.043,1.05 ± 0.031,1.06 ± 0.018,1.06 ± 0.03,1.05 ± 0.083,1.1 ± 0.1,1.14 ± 0.044,1.18 ± 0.042,1.17 ± 0.04,1.09 ± 0.049,0.265 ± 0.022,
HELA CERVIX,1 ± 0.096,0.998 ± 0.036,0.939 ± 0.059,0.953 ± 0.044,1.09 ± 0.033,1.04 ± 0.026,1.05 ± 0.037,1.1 ± 0.09,1.09 ± 0.057,1.07 ± 0.062,1.08 ± 0.055,1.09 ± 0.12,1.07 ± 0.08,1.09 ± 0.072,0.581 ± 0.028,1.09 ± 0.03
HOS BONE,1 ± 0.0066,0.9927 ± 0.0081,0.994 ± 0.023,0.997 ± 0.0046,1.047 ± 0.0078,1.037 ± 0.0023,1.02 ± 0.013,0.96 ± 0.018,1.03 ± 0.026,,1.05 ± 0.017,1.04 ± 0.025,1.09 ± 0.022,0.685 ± 0.041,0.575 ± 0.014,
HOSMNG BONE,1 ± 0.071,0.979 ± 0.11,0.992 ± 0.068,0.985 ± 0.07,1.04 ± 0.061,1.08 ± 0.08,1.01 ± 0.1,1.09 ± 0.038,0.954 ± 0.09,0.983 ± 0.1,,0.649 ± 0.012,0.501 ± 0.017,0.329 ± 0.032,0.227 ± 0.011,
HSSYII SYNOVIAL,0.918 ± 0.058,0.908 ± 0.022,0.905 ± 0.061,0.901 ± 0.022,0.937 ± 0.025,0.926 ± 0.027,0.926 ± 0.049,0.887 ± 0.039,1.04 ± 0.045,1.03 ± 0.037,1.03 ± 0.05,0.934 ± 0.034,,0.392 ± 0.037,0.189 ± 0.0013,1 ± 0.083
HT1080 SOFT TISSUE,1.01 ± 0.04,0.993 ± 0.015,1.004 ± 0.0098,1.039 ± 0.002,0.965 ± 0.023,1.01 ± 0.036,0.997 ± 0.036,0.969 ± 0.011,1.07 ± 0.038,1.07 ± 0.028,1.07 ± 0.016,1.04 ± 0.062,1.07 ± 0.052,1.02 ± 0.042,0.798 ± 0.064,1.06 ± 0.017
HU09 BONE,1.06 ± 0.09,1.03 ± 0.11,1.09 ± 0.081,1.18 ± 0.22,1.25 ± 0.32,1 ± 0.072,0.915 ± 0.091,0.932 ± 0.064,0.86 ± 0.084,0.956 ± 0.13,1.13 ± 0.099,1.02 ± 0.044,1.02 ± 0.042,0.511 ± 0.063,0.233 ± 0.048,1.14 ± 0.06
HUO3N1 BONE,0.9853 ± 0.0075,0.999 ± 0.029,1.05 ± 0.057,1.03 ± 0.048,1.07 ± 0.021,1 ± 0.048,0.967 ± 0.038,0.868 ± 0.013,1.03 ± 0.016,1.02 ± 0.049,1.117 ± 0.0087,,,,0.787 ± 0.061,1.07 ± 0.083
JIMT1 BREAST,0.975 ± 0.024,0.969 ± 0.034,0.973 ± 0.026,1.01 ± 0.013,1.07 ± 0.046,1.06 ± 0.02,1.06 ± 0.014,1.06 ± 0.0097,1.01 ± 0.029,1.01 ± 0.029,1.03 ± 0.012,1.07 ± 0.045,1.08 ± 0.036,0.833 ± 0.044,0.538 ± 0.022,1 ± 0.032
JURKAT HAEMATOPOIETIC AND LYMPHOID TISSUE,1.092 ± 0.0091,1.08 ± 0.017,1.09 ± 0.021,1.05 ± 0.037,1.05 ± 0.036,1.04 ± 0.034,1.08 ± 0.018,1.09 ± 0.014,1.04 ± 0.011,,,,0.928 ± 0.028,0.212 ± 0.0087,0.306 ± 0.011,0.96 ± 0.035
KPD BONE,1.01 ± 0.074,0.951 ± 0.089,1.01 ± 0.043,0.991 ± 0.074,1.04 ± 0.047,1.01 ± 0.14,0.945 ± 0.017,0.99 ± 0.056,0.936 ± 0.05,1.01 ± 0.038,,,,,0.245 ± 0.011,1.16 ± 0.03
LM7 BONE,0.967 ± 0.042,0.976 ± 0.03,1.07 ± 0.041,1.03 ± 0.097,1.04 ± 0.047,1.06 ± 0.073,0.994 ± 0.12,0.896 ± 0.03,,1.01 ± 0.043,1.07 ± 0.067,1.04 ± 0.051,1.12 ± 0.07,0.591 ± 0.046,0.221 ± 0.0062,
LNCAP PROSTATE,0.985 ± 0.1,0.852 ± 0.067,0.908 ± 0.19,0.861 ± 0.12,0.969 ± 0.032,0.915 ± 0.013,0.802 ± 0.03,0.806 ± 0.067,1.01 ± 0.15,,,0.872 ± 0.061,0.904 ± 0.12,0.653 ± 0.063,0.425 ± 0.065,0.924 ± 0.094
MCF7 BREAST,0.815 ± 0.049,0.841 ± 0.028,0.844 ± 0.025,0.828 ± 0.03,0.913 ± 0.048,0.862 ± 0.026,0.889 ± 0.065,0.854 ± 0.039,0.963 ± 0.04,,0.967 ± 0.011,1 ± 0.025,0.981 ± 0.021,1 ± 0.05,0.617 ± 0.035,0.968 ± 0.042
MDAMB134 BREAST,1.16 ± 0.2,1.07 ± 0.086,1.15 ± 0.23,0.87 ± 0.014,1.04 ± 0.14,0.986 ± 0.14,0.907 ± 0.0014,0.976 ± 0.025,,1.01 ± 0.028,0.93 ± 0.068,0.91 ± 0.0085,,1.05 ± 0.019,0.947 ± 0.026,1.06 ± 0.04
MDAMB157 BREAST,0.935 ± 0.14,0.923 ± 0.06,0.93 ± 0.042,0.935 ± 0.071,0.836 ± 0.059,0.89 ± 0.068,0.837 ± 0.059,0.829 ± 0.053,1.03 ± 0.087,0.999 ± 0.027,1.06 ± 0.076,1.06 ± 0.11,1.04 ± 0.082,0.754 ± 0.021,0.601 ± 0.029,0.977 ± 0.044
MDAMB231 BREAST,0.965 ± 0.026,0.9749 ± 0.0034,0.975 ± 0.038,1.01 ± 0.011,1.01 ± 0.02,1.02 ± 0.014,0.926 ± 0.02,0.9 ± 0.025,0.997 ± 0.019,1.01 ± 0.024,0.999 ± 0.034,0.947 ± 0.031,0.9384 ± 0.0074,0.541 ± 0.011,0.352 ± 0.022,1 ± 0.023
MDAMB361 BREAST,0.838 ± 0.094,0.87 ± 0.039,0.829 ± 0.083,0.812 ± 0.049,0.867 ± 0.055,0.8863 ± 0.0064,0.93 ± 0.083,0.842 ± 0.038,0.815 ± 0.053,0.898 ± 0.094,0.881 ± 0.035,0.828 ± 0.07,,0.882 ± 0.067,1.03 ± 0.095,0.848 ± 0.079
MDAMB436 BREAST,0.857 ± 0.024,0.807 ± 0.1,0.8337 ± 0.0019,0.877 ± 0.086,0.926 ± 0.029,0.946 ± 0.12,0.983 ± 0.13,0.941 ± 0.033,1.01 ± 0.032,0.97 ± 0.11,1.02 ± 0.086,0.965 ± 0.11,1.07 ± 0.022,,0.916 ± 0.1,1.03 ± 0.13
MDAMB453 BREAST,1.02 ± 0.033,0.992 ± 0.039,0.983 ± 0.02,0.986 ± 0.028,1.048 ± 0.0087,1.05 ± 0.033,1.04 ± 0.015,1.02 ± 0.028,1.1 ± 0.049,1.06 ± 0.064,1.17 ± 0.079,,1.11 ± 0.039,0.844 ± 0.042,0.803 ± 0.043,1.14 ± 0.12
MDAMB468 BREAST,0.984 ± 0.047,1.02 ± 0.059,1.05 ± 0.067,1.06 ± 0.09,1.05 ± 0.039,1.05 ± 0.074,0.985 ± 0.046,1.03 ± 0.095,1.08 ± 0.018,1.12 ± 0.072,1.11 ± 0.023,1.16 ± 0.029,1.06 ± 0.015,0.666 ± 0.039,0.276 ± 0.007,1.1 ± 0.094
MFM223 BREAST,1.07 ± 0.076,1.02 ± 0.056,1.03 ± 0.047,1.04 ± 0.053,1.1 ± 0.087,1.18 ± 0.075,1.17 ± 0.092,1.15 ± 0.089,1.21 ± 0.058,1.2 ± 0.019,1.21 ± 0.058,1.07 ± 0.058,,1.07 ± 0.011,1.084 ± 0.0027,1.11 ± 0.033
